Experimental data as given in patent US3989836A, “Method for treating cardiovascular circulatory insufficiencies and hypotonia with 2-hydroxyphenyl-1-oxa-4-azaspiroalkane derivatives” (Warner-Lambert Company, priority 1973, dated 1976).
Like-named read-outs stand apart in the source and are kept apart here.

Columns and labels:
Format in all cases: in vivo
[1] = Toxicity on mice (LD50 i.g., largest dose i.v. at which all animals survive); conditions: for LD50 i.g.: mice, footnote: not determinable because of insufficient resorption, no dosage-dependent death of the animals; for LD50: mouse, in vivo, po
Method: I. toxicity was determined on mice in the usual manner; the test and comparison substances being administered in aqueous solution by means of a stomach probe.

average blood pressure [2] = assay: Sympathomimetic action: increase of the average blood pressure by 25% over the initial value (narcotised dogs); conditions: for ED (25% increase): Canis lupus familiaris, read-out: dose for increase of the average blood pressure by 25% over the initial value
Method: Ii. sympathomimetic action was determined by measurement of the arterial and venous blood pressure using Statham transducers. The measured values were recorded by means of a direct recording instrument. As experimental animals, adult dogs of both sexes, were used; these had been narcotised with pentobarbital. During the experiment, the animals were kept at their specific body temperature by means of rectum-controlledinfra-red lamps. The compounds tested were injected, in the form of an isotonic solution, into the side branch of the vena femoralis. In the case of intraduodenal administration, the animals were laparotomised, and a cannula was fixed into the small intestine so that the substance, in the form of an aqueous solution, could be introduced directly into the intestine. Furthermore, the pylorus was ligatured in order to prevent regurgitation of the substance into the stomach. In the case of intragastric administration, the substances were administered in the form of an aqueous solution by means of a stomach probe.

average blood pressure [3] = assay: Sympathomimetic action: increase of the average blood pressure in % of initial value (awake dogs); conditions: for increase of the average blood pressure: i.g. up to 20 mg/kg
Method: Ii. sympathomimetic action was determined by measurement of the arterial and venous blood pressure using Statham transducers. The measured values were recorded by means of a direct recording instrument. In the case of intragastric administration, the substances were administered in the form of an aqueous solution by means of a stomach probe. Quiet and compatible dogs were trained to lie, without sedation, for a few hours on an operating board. Under local anesthesia, a catheter was introduced into the arteria femoralis. A measurement of arterial blood pressure was then carried out using the catheter and a Statham transducer.

[4] = Toxicity on mice (LD50 i.g., largest dose i.v. at which all animals survive)

In the case of NCC(O)c1cccc(O)c1 (stereo not shown) [D, 1-(3'-hyroxyphenyl)-2-aminoethanol, reference compound], the LD50 i.g. [1] is reported as “not determinable”, the ED (25% increase) (average blood pressure [2]; intraduodenal, i.d.) is reported as > 20 mg/kg and the “increase of the average blood pressure” value (average blood pressure [3]) is reported as “without effect”. For the same molecule, the “increase of the average blood pressure in % of initial value” (“increase … in % of initial value” below) (average blood pressure [3]; i.v. 0.05 mg/kg) was 50-70% and the “largest dose i.v. at which all animals survive” value [4] was 3.3 mg/kg.
For Oc1cccc(C2CNC3(CCCCCC3)O2)c1 (stereo not shown) [B, 2-(3'-hydroxyphenyl)-1-oxa-4-azaspiro[4,6]undecane], the LD50 [1] was ~400 mg/kg, the ED (25% increase) (average blood pressure [2]; po, i.g.) was 2 mg/kg and the “duration of increase of the average blood pressure by 25% over the initial value” (average blood pressure [2]; i.g. 2.0 mg/kg) was > 60 '. The “duration of increase of the average blood pressure” value (average blood pressure [3]; i.g. 2 mg/kg) was 70 ', the “increase … in % of initial value” (average blood pressure [3]; i.g. 2 mg/kg) was 35% and the “increase … in % of initial value” (average blood pressure [3]; i.v. 0.05 mg/kg) was 40-70%. The “largest dose i.v. at which all animals survive” value [4] was 3.3 mg/kg.
With CC1=CC2(CC(C)(C)C1)NCC(c1cccc(O)c1)O2 (stereo not shown) [C, 7,9,9-trimethyl-2-(3'-hydroxyphenyl)-1-oxa-4-azaspiro-[4,5]dec-6-ene] the LD50 [1] was ~1200 mg/kg, the ED (25% increase) (average blood pressure [2]; po, i.g.) was 4 to 16 mg/kg and the “duration of increase of the average blood pressure by 25% over the initial value” (average blood pressure [2]; i.g. 4.0-16.0 mg/kg) was 60 '. For the same molecule, the “duration of increase of the average blood pressure” value (average blood pressure [3]; i.g. 16 mg/kg) was 34 ', the “increase … in % of initial value” (average blood pressure [3]; i.g. 16 mg/kg) was 50% and the “increase … in % of initial value” (average blood pressure [3]; i.v. 1 mg/kg) was 30-60%. The “largest dose i.v. at which all animals survive” value [4] was 20.7 mg/kg.
For CCNCC(O)c1cccc(O)c1 (stereo not shown) [E, 1-(3'-hydroxyphenyl)-2-ethylaminoethanol, reference compound], the LD50 i.g. [1] was “not determinable”, the ED (25% increase) (average blood pressure [2]; intraduodenal, i.d.) was > 20 mg/kg and the “increase of the average blood pressure” value (average blood pressure [3]) was “without effect”. The “increase … in % of initial value” (average blood pressure [3]; i.v. 0.05 mg/kg) was 25% and the “largest dose i.v. at which all animals survive” value [4] was 7.25 mg/kg.
With Oc1cccc(C2CNC3(CCCCC3)O2)c1 (stereo not shown) [A, 2-(3'-hydroxyphenyl)-1-oxa-4-azaspiro[4,5]decane] the LD50 [1] was > 400 mg/kg, the ED (25% increase) (average blood pressure [2]; intraduodenal, i.d.) was 2 mg/kg and the “duration of increase of the average blood pressure by 25% over the initial value” (average blood pressure [2]; i.d. 2.0 mg/kg) was > 50 '. For the same molecule, the “duration of increase of the average blood pressure” value (average blood pressure [3]; i.g. 4 mg/kg) was > 60 ', the “increase … in % of initial value” (average blood pressure [3]; i.g. 4 mg/kg) was 40% and the “increase … in % of initial value” (average blood pressure [3]; i.v. 0.05 mg/kg) was 50-80%. For the same molecule, the “largest dose i.v. at which all animals survive” value [4] was 3.3 mg/kg.
